These results are taken from PMC2763345 (PLoS Pathogens, 2009).

pIC50: −log10 of the molar value. In brackets after ≈: the same amount, converted by molar mass.

One data set concerns M. smegmatis mc2 155. Type of data set: cell-based.
In data set [1] the test system is Candida albicans, C. glabrata, C. parapsilosis. The data set is classed as cell-based, Fungi.
Data set [2] deals with M. tuberculosis H37Rv-GFP in human primary macrophages. The data set is classed as cell-based, Mycobacterium tuberculosis.
Data set [3] relates to M. tuberculosis H37Rv. Type of data set: cell-based.
Another data set deals with C. striatum. Type of data set: cell-based, Corynebacterium striatum.
Data set [4] relates to M. tuberculosis H37Ra. Type of data set: cell-based.
The subject of the next data set is BCG Pasteur-Tokyo. The data set is classed as cell-based, M. bovis BCG.
Data set [5] has as its system M. tuberculosis H37Ra. The data set is classed as cell-based. The source holds these as a separate data set.
A short description of a further data set: in vitro. The conditions noted are these: C57BL/6, mouse.
A further data set deals with BCG Wild Type. The data set is described as follows: microbe, parasite or virus in culture. The conditions noted are these: Mycobacterium tuberculosis variant bovis BCG, BCG. The data set is classed as cell-based, M. bovis BCG.
In the next data set the test system is C. jeikeium. Type of data set: cell-based, Corynebacterium jeikeium.
Data set [6] has as its system Acinetobacter baumannii, Escherichia coli, Enterobacter cloacae, E. aerogenes, Klebsiella oxytoca, Pseudomonas aeruginosa, Salmonella enteridis, Vibrio mimicus. Type of data set: cell-based, Gram-negative bacteria.
The subject of data set [7] is M. tuberculosis H37Rv-GFP in Raw264.7 macrophages. As to the kind of experiment: microbe, parasite or virus in culture. The data set is classed as cell-based, Mycobacterium tuberculosis. The conditions noted are these: Mycobacterium tuberculosis, H37RV, read-out: MIC Intracellular.
The test system of data set [8] is M. smegmatis mc2 155 Wild Type. As to the kind of experiment: microbe, parasite or virus in culture. The data set is classed as cell-based. The conditions noted are these: Mycolicibacterium smegmatis, MC2155.
Data set [9] has as its system M. tuberculosis H37Rv-GFP in mouse bone marrow-derived macrophages. The data set is classed as cell-based, Mycobacterium tuberculosis.
Data set [10] concerns M. tuberculosis H37Rv. Type of data set: cell-based. This is another data set of the same source.
For data set [11], the system named is Staphylococcus aureus, S. epidermis, S. capitis, S. xylosus, Micrococcus luteus, Listeria innocua, Lactobacillus gallinarum, group G Streptococcus …. Type of data set: cell-based, Gram-positive bacteria.
The subject of data set [12] is M. tuberculosis H37Rv-GFP. As to the kind of experiment: microbe, parasite or virus in culture. Type of data set: cell-based, Mycobacterium tuberculosis. The settings on record: Mycobacterium tuberculosis, H37RV, read-out: MIC Extracellular.

Turning to `COc1ccc(OCCNC(=O)c2cc([N+](=O)[O-])cc([N+](=O)[O-])c2)cc1` [Compound 8, N-(2-(4-methoxyphenoxy)ethyl)-3,5-dinitrobenzamide], the “Range of MICs for multiple strains” value in the data set with M. smegmatis mc2 155 is recorded as 0.4 µM; in data set [1], > 250 µM; with M. tuberculosis H37Rv [3], 0.2 µM; in the data set with C. striatum it was 27 µM; in the data set on M. tuberculosis H37Ra [4] it was 0.2 µM; with BCG Pasteur-Tokyo, 0.2 µM. In addition, the “Range of MICs for multiple strains” value in the data set on C. jeikeium is 2.7 µM; in [6], > 250 µM; in data set [11], > 250 µM. The “decrease in the number of CFUs” value in [2] and in data set [9] was “More than a ten-fold decrease” in each case. The “effect on the synthesis of the arabinan domains of arabinogalactan (AG) and lipoarabinomannan (LAM)” value in the data set with M. tuberculosis H37Ra [5] was “clear-cut effect”. The “effects on the biosynthesis of fatty acids, mycolic acids and/or other lipids” value in the data set on M. tuberculosis H37Ra [5] is “no effects”. For the same molecule, the pIC50 (in general, −log10 of the IC50, conventionally taken in molar units) in “in vitro” was 4.30. Moreover, the MIC in the data set on BCG Wild Type is 0.075 µg/mL (≈ 0.208 µM); in data set [7], 0.2 µM (≈ 0.0723 µg/mL); in data set [8] it was 0.15 µg/mL (≈ 0.415 µM); in data set [12], 0.2 µM (≈ 0.0723 µg/mL). Further, the “bactericidal effect on M. tuberculosis” value in the data set with M. tuberculosis H37Rv [10] is reported as “time-dependent”.
